Columns and labels:
[1] = tested on: NCI-H1355 (Lung Adenocarcinoma); assay: Bliss excess, mean over the matrix (fraction); higher = more synergy
Outline: (§1)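 Cell lines grown in DMEM/F12 or RPMI with 10% FBS were plated in 1536-well plates and held 24 hours at 37°C, 5% CO2 before 72 hours of exposure to two-drug dose matrices, with DMSO typically at 0.2%. CellTiter-Glo 2.0 luminescence gave viability, which was converted to inhibition. Vehicle wells were set to 0 and blank wells to 1. Combination Emax is the second-highest inhibition in the matrix, and Bliss excess is the observed combination effect minus the expected EA + EB − EA·EB, where EA and EB are the single-agent effects.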

[2] = tested on: SW872 (Other Solid Carcinomas); assay: as above
Outline: as §1

[3] = tested on: NCI-H1993 (Lung Adenocarcinoma); assay: as above
Outline: as §1

[4] = tested on: EFO-21 (Ovarian Carcinoma); assay: as above
Outline: as §1

[5] = tested on: Mo-T (Other Blood Carcinomas); assay: as above
Outline: as §1

[6] = tested on: SNU-387 (Hepatocellular Carcinoma); assay: combination Emax (second highest fraction inhibited in the dose matrix, 72 h); higher = more inhibition; extreme values may be limits of the assay
Outline: as §1

[7] = tested on: SKN (Other Solid Carcinomas); assay: as above
Outline: as §1

[8] = tested on: KMRC-1 (Kidney Carcinoma); assay: as above
Outline: as §1

[9] = tested on: MV-4-11 (Acute Myeloid Leukemia); assay: as above
Outline: as §1

[10] = tested on: SW872 (Other Solid Carcinomas); assay: as above
Outline: as §1

[11] = tested on: NCI-H1993 (Lung Adenocarcinoma); assay: as above
Outline: as §1

[12] = tested on: ME-180 (Cervical Carcinoma); assay: as above
Outline: as §1

[13] = tested on: ML-2 (Acute Myeloid Leukemia); assay: as above
Outline: as §1

[14] = tested on: EFO-21 (Ovarian Carcinoma); assay: as above
Outline: as §1

[15] = tested on: KGN (Other Solid Carcinomas); assay: as above
Outline: as §1

[16] = tested on: Ca-Ski (Cervical Carcinoma); assay: as above
Outline: as §1

[17] = tested on: A4-Fuk (B-Lymphoblastic Leukemia); assay: as above
Outline: as §1

[18] = tested on: NCI-H522 (Lung Adenocarcinoma); assay: as above
Outline: as §1

[19] = tested on: Mo-T (Other Blood Carcinomas); assay: as above
Outline: as §1

[20] = tested on: MOLT-4 (T-Lymphoblastic Leukemia); assay: as above
Outline: as §1
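For Bliss excess, mean over the matrix in this document: after 72 h of two-drug dosing.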

| SMILES | Bliss excess [1] | Bliss excess [2] | Bliss excess [3] | Bliss excess [4] | Bliss excess [5] | combination Emax [6] | combination Emax [7] | combination Emax [8] | combination Emax [9] | combination Emax [10] | combination Emax [11] | combination Emax [12] | combination Emax [13] | combination Emax [14] | combination Emax [15] | combination Emax [16] | combination Emax [17] | combination Emax [18] | combination Emax [19] | combination Emax [20] |
| --- | --- | --- | --- | --- | --- | --- | --- | --- | --- | --- | --- | --- | --- | --- | --- | --- | --- | --- | --- | --- |
| CN(CCO)CC[C@H](CSc1ccccc1)Nc1ccc(S(=O)(=O)NC(=O)c2ccc(N3CCC([C@@H](O)c4ccccc4-c4ccc(Cl)cc4)CC3)cc2)cc1S(=O)(=O)C(F)(F)F [AZD4320] + Cc1cc2ncnn2cc1Nc1ncc2c(n1)n(C1CCOCC1)c(=O)n2C [AZD7648] (first compound max 1 µM, 7x7, partner max 10 µM) | -0.052 | -0.0262 | -0.0205 | -0.0461 | -0.0057 | 0.178 | 0.15 | 0.222 | 1 | 0.113 | 0.785 | 0.26 | 0.966 | 0.224 | 0.437 | 0.208 | 0.619 | 0.0447 | 0.578 | 0.98 |
| CN(CCO)CC[C@H](CSc1ccccc1)Nc1ccc(S(=O)(=O)NC(=O)c2ccc(N3CCC([C@@H](O)c4ccccc4-c4ccc(Cl)cc4)CC3)cc2)cc1S(=O)(=O)C(F)(F)F [AZD4320] + Nc1ccn([C@@H]2O[C@H](CO)[C@@H](O)C2(F)F)c(=O)n1 [Gemcitabine] (first compound max 1 µM, 7x7, partner max 0.3 µM) | -0.0349 | 0.0199 | -0.0164 | 0.0353 | 0.114 | 0.218 | 0.783 | 0.902 | 1 | 0.929 | 0.937 | 0.878 | 1 | 0.473 | – | 0.91 | 0.914 | 0.224 | 0.997 | 1 |
| N#Cc1cnc(Nc2cc(NC[C@H]3CNCCO3)c(C(F)(F)F)cn2)cn1 [SRA737] + C=CCn1c(=O)c2cnc(Nc3ccc(N4CCN(C)CC4)cc3)nc2n1-c1cccc(C(C)(C)O)n1 [AZD1775] (first compound max 10 µM, partner max 1 µM) | -0.0046 | 0.0756 | 0.194 | – | -0.0097 | 0.465 | 0.518 | 0.54 | 0.931 | 0.683 | 0.88 | 0.541 | 1 | 0.431 | 0.812 | 0.846 | 0.959 | 0.402 | 0.565 | 1 |
| C[C@@H](c1ccc2nccn2c1)n1nnc2ncc(-c3cnn(C)c3)nc21 [Savolitinib] + Cc1c2c(nn1C)CSCc1cc(n(C)n1)CSc1cc(c3ccccc3c1)OCCCc1c(C(=O)O)n(C)c3c-2c(Cl)ccc13 [AZD5991] (first compound max 1 µM, 7x7, partner max 1 µM) | -0.0155 | 0.003 | -0.0338 | -0.0454 | -0.056 | 0.342 | 0.219 | 0.209 | 1 | 0.201 | 0.789 | 0.114 | 1 | 0.163 | 0.303 | 0.212 | 1 | 0.281 | 0.129 | 0.491 |
| CN(CCO)CC[C@H](CSc1ccccc1)Nc1ccc(S(=O)(=O)NC(=O)c2ccc(N3CCC([C@@H](O)c4ccccc4-c4ccc(Cl)cc4)CC3)cc2)cc1S(=O)(=O)C(F)(F)F [AZD4320] + C[C@@H](Nc1cc(F)cc(F)c1)c1cc(C(=O)N(C)C)cc2c(=O)cc(N3CCOCC3)oc12 [AZD8186] (first compound max 1 µM, 7x7, partner max 3 µM) | 0.0082 | 0.0462 | 0.0156 | 0.0323 | 0.0075 | 0.419 | 0.634 | 0.771 | 1 | 0.293 | 0.874 | 0.338 | 0.999 | 0.381 | 0.493 | 0.509 | 0.373 | 0.213 | 0.989 | 0.982 |
| Cc1cc2ncnn2cc1Nc1ncc2c(n1)n(C1CCOCC1)c(=O)n2C [AZD7648] + CN(C)CCCOc1ccc(-c2ccc3ncc4c(c3c2)n(C2CCOCC2)c(=O)n4C)cn1 [AZD0156] (first compound max 10 µM, 7x7, partner max 1 µM) | -0.033 | 0.0713 | -0.0225 | -0.0063 | -0.122 | 0.275 | 0.264 | 0.24 | 0.484 | 0.264 | 0.517 | 0.326 | 0.374 | 0.332 | 0.661 | 0.296 | 0.575 | 0.164 | 0.3 | 0.246 |
| CN(CCO)CC[C@H](CSc1ccccc1)Nc1ccc(S(=O)(=O)NC(=O)c2ccc(N3CCC([C@@H](O)c4ccccc4-c4ccc(Cl)cc4)CC3)cc2)cc1S(=O)(=O)C(F)(F)F [AZD4320] + Cn1cnc2c(F)c(Nc3ccc(Br)cc3Cl)c(C(=O)NOCCO)cc21 [Selumetinib] (first compound max 1 µM, 7x7, partner max 3 µM) | 0.0529 | 0.0556 | -0.0307 | -0.0084 | 0.0434 | 0.445 | 0.454 | 0.253 | 1 | 0.21 | 0.935 | 0.333 | 1 | 0.322 | 0.34 | 0.588 | 0.456 | 0.301 | 0.996 | 0.993 |
| Cc1cc2ncnn2cc1Nc1ncc2c(n1)n(C1CCOCC1)c(=O)n2C [AZD7648] + C=CCn1c(=O)c2cnc(Nc3ccc(N4CCN(C)CC4)cc3)nc2n1-c1cccc(C(C)(C)O)n1 [AZD1775] (first compound max 10 µM, partner max 1 µM) | -0.0276 | 0.0554 | -0.0167 | 0.0175 | -0.14 | 0.383 | 0.38 | 0.307 | 0.954 | 0.384 | 0.635 | 0.529 | 1 | 0.511 | 0.833 | 0.704 | 0.861 | 0.373 | 0.52 | 1 |
| N#Cc1cnc(Nc2cc(NC[C@H]3CNCCO3)c(C(F)(F)F)cn2)cn1 [SRA737] + O=c1[nH]cc(F)c(=O)[nH]1 [5-Fluorouracil] (first compound max 10 µM, 7x7, partner max 20 µM) | 0.0349 | 0.0629 | 0.059 | -0.006 | 0.0056 | 0.364 | 0.361 | 0.543 | 0.967 | – | 0.76 | 0.564 | 0.963 | 0.313 | 0.572 | 0.862 | 0.905 | 0.0376 | 0.544 | 1 |
| Cc1cc2ncnn2cc1Nc1ncc2c(n1)n(C1CCOCC1)c(=O)n2C [AZD7648] + C[C@@H]1COCCN1C2=NC(=NC(=C2)C3(CC3)[S@](=N)(=O)C)C4=C5C=CNC5=NC=C4 [AZD6738] (first compound max 10 µM, 7x7, partner max 10 µM) | 0.0296 | 0.0801 | 0.0469 | 0.053 | -0.0956 | 0.388 | 0.47 | 0.518 | 0.983 | 0.496 | 0.665 | 0.442 | 0.968 | 0.488 | 0.873 | 0.581 | 0.765 | 0.193 | 0.569 | 1 |
| Cc1cc2ncnn2cc1Nc1ncc2c(n1)n(C1CCOCC1)c(=O)n2C [AZD7648] + CCN(CCO)CCCOc1ccc2c(Nc3cc(CC(=O)Nc4cccc(F)c4)[nH]n3)ncnc2c1 [AZD2811] (first compound max 10 µM, 7x7, partner max 1 µM) | -0.0401 | 0.0723 | 0.0171 | -0.0061 | -0.0582 | 0.254 | 0.282 | 0.267 | 0.945 | 0.271 | 0.573 | 0.389 | 0.832 | 0.297 | 0.722 | 0.349 | 0.699 | 0.213 | 0.37 | 0.965 |
| CN(CCO)CC[C@H](CSc1ccccc1)Nc1ccc(S(=O)(=O)NC(=O)c2ccc(N3CCC([C@@H](O)c4ccccc4-c4ccc(Cl)cc4)CC3)cc2)cc1S(=O)(=O)C(F)(F)F [AZD4320] + CCN(CCO)CCCOc1ccc2c(Nc3cc(CC(=O)Nc4cccc(F)c4)[nH]n3)ncnc2c1 [AZD2811] (first compound max 1 µM, 7x7, partner max 1 µM) | -0.0133 | -0.0215 | -0.0043 | -0.0616 | -0.003 | 0.227 | 0.613 | 0.144 | 1 | 0.142 | 0.704 | 0.624 | 1 | 0.196 | 0.497 | 0.907 | 0.417 | 0.105 | 0.768 | 1 |
| Cc1c2c(nn1C)CSCc1cc(n(C)n1)CSc1cc(c3ccccc3c1)OCCCc1c(C(=O)O)n(C)c3c-2c(Cl)ccc13 [AZD5991] + Cn1cnc2c(F)c(Nc3ccc(Br)cc3Cl)c(C(=O)NOCCO)cc21 [Selumetinib] (first compound max 1 µM, 7x7, partner max 3 µM) | -0.0258 | -0.003 | 0.0043 | -0.0248 | -0.0167 | 0.619 | – | 0.197 | 1 | 0.288 | 0.511 | 0.26 | 1 | 0.36 | 0.299 | 0.633 | 1 | 0.409 | 0.296 | 0.339 |

Source: the supplement of paper PMC11061612
